# System: B16 cells
# Assay: Viability (MTT) of B16 cells with Saq-NO2 plus Akt/PI-3K inhibitor
# Format: cell-based, mouse
# Conditions: B16, 24 h, 18.8 μM Saq-NO2 with Akt VI (50μg/ml) or 3-MA (1 mM)
# Protocol: Reduction of 3-4,5-dimethylthiazol-2-yl)-2,5-diphenyltetrazolium bromide (MTT) to formazan depends on mitochondrial activity of cultured cells, absorption of crystal violet dye correlates with the number of adherent, live cells, while the release of cytosolic lactate dehydrogenase (LDH) indicates the disruption of membrane integrity caracteristic for necrotic cells. The cells were seeded in flat-bottom 96-well plates in a final volume of 200 μl of culture medium containing different agents, and the assays were performed after 24 h incubation exactly as previously described (Mijatovic et al. 2004, Decker et al., 1998). Mitohondrial-dependent production of formazan and intensity of absorbed crystal violet by adherent cells were assessed by an automated microplate reader at 570 nm, while the pyruvate-mediated conversion of 2,4-dinitrophenylhydrazine into visible hydrazone precipitate in LDH assay was measured at 492 nm. The % of cytotoxicity as indicated by LDH release was calculated as: (E−C)/(T−C)×100, where E is the experimental absorbance of cell cultures, C is the control absorbance of cell-free culture medium, and T is the absorbance corresponding to the maximal (100%) LDH release of Triton-lysed cells.
# FIG. 6. […] (C) B16 cells (1×10^4 cells/well) were incubated for 24 h with 18.8 μM Saq-NO2 with or without Akt VI (50μg/ml) or 3-MA (1 mM) and cell viability was assessed by MTT. […]
smiles,measurement,value
Cn1cnc(=N)c2[nH]cnc21 [3-MA],tumor cell viability on addition of inhibitor to Saq-NO2,further decrease of tumor cell viability

# Reference: patent US8563578B2, “Antitumor properties of NO modified protease inhibitors” (Onconox APS, priority 2008, dated 2013)
